Like-named read-outs stand apart in the source and are kept apart here. Values belong to the compound of their own block, whether it stands above or below them.
What was measured:
[1] = test system: PANK2 silenced human neuroblastoma IMR32 cells (PANK2−/−); test: Coenzyme A assay in PANK2 silenced cells (LC-MS quantification of free CoA); assay type: cell-based; conditions: compound added twice (24 h + 24 h), relative to 0.1% DMSO controls
In short: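 PANK2 shRNA-silenced IMR32 neuroblastoma cells were treated with compound (0.1% DMSO) for 24 h, then re-dosed with fresh compound for a further 24 h at 37 °C. TFA extracts of 1×10^6 cells were assayed for free CoA by LC-MS/MS (MRM 768.1→261.6/136.1). Results are given as fold change versus DMSO controls.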

[2] = Permeability in porcine brain endothelial cell blood-brain barrier model; assay type: in vitro ADME; conditions: pig (endothelial cells), co-cultured with rat astrocytes, pH 7.4, PBECs/As blood-brain barrier model, luminal to basal
Excerpt: Compounds disclosed herein show the potential to reach mammalian brain by crossing the blood-brain barrier (BBB) from systemic circulation. […] The porcine brain endothelial cell permeability assay is an in vitro BBB model to be used for the prediction of central nervous system (CNS) drug permeability in vivo and for ranking or prioritization of compounds according to their permeability. This system can also be used for mechanistic studies and drug delivery strategies via receptor-mediated transport (transcytosis). The system is a two-dimensional co-culture, non-contact model of two types of primary cells: primary brain endothelial cells obtained from fresh porcine brains, and primary rat astrocytes, obtained from neonatal rats. This ensures barrier formation and functional expression of key transporters.
The endothelial cells were cultured on rat-tail collagen type I and human fibronectin coated Transwell polycarbonate inserts (surface area 0.7 cm^2; pore size 0.4 μm) and the inserts were placed in 24-well plates containing confluent rat astrocytes. This system allows for the formation of a differentiated BBB model suitable for compound permeability in 10 days.
On the day of the experiment, culture medium was removed and cells were pre-incubated for 30 min with HBSS containing 20 mM Hepes pH 7.4 and 0.1% BSA. Donor volume (apical) was 400 μl and receiver volume (basal) 900 μl. Compounds were diluted in assay medium (at the desired concentration) and added to the luminal side (to mimic blood to brain passage). Transport was measured usually after 60 min by detecting the amount of compound from the basal (brain side). The integrity of the cell layers was assessed by measuring the transendothelial electrical resistance (TEER) and by monitoring FITC-dextran (40 KDa) permeation. Inserts with TEER values […] were selected for permeability studies. As FITC-dextran cannot freely permeate lipophilic barriers, a high degree of FITC-dextran transport indicates poor integrity of the cell layer and wells with high FITC-dextran permeability were excluded. FITC-dextran was included as internal control in each insert used for permeability studies. Fluorescence was measured using a fluorimetric detector. Radioactivity was measured by scintillation counting. For LC-MS/MS analysis, aliquots (200 μl) from the basal compartment were diluted with an equal volume of 100% acetonitrile containing 0.1% formic acid, centrifuged to remove cell debris, and evaporated under N2. After reconstitution, samples were analyzed by LC-MS/MS. Mass balance was determined considering the amount of compound recovered in the donor and receiver chamber at the end of the assay relative to the amount added to the donor chamber at time 0.
Permeability was defined as the apparent permeability coefficient (Papp), which is a measure of the appearance rate of the compound in the receiver chamber, expressed in cm/s. Papp is calculated according the following equation: Papp[cm/sec]=Vd*ΔMr/A*Md*Δt, Equation 2: where
Vd=volume in the donor compartment in cm^3 or mL;
ΔMr=total amount of compound in the receiver compartment after t seconds;
Md=donor amount (added at time 0)
Δt=time measured in seconds
A=filter area in cm^2 (for 24 well plate, A=0.7 cm^2).
To correct for the contribution of filter and substrate, Papp was also determined for the cell-free system. Permeability of the endothelial cell layer was determined using the following equation: […], Equation 3: where
Ptotal=the P of the total system,
Pf=P for the cell-free filter, and
Pe=P for the endothelial cell layer alone. In this equation, the total resistance of the system towards passage of a substance is additively composed of two […] resistances: that of the cell monolayer and that of the filter.

[3] = Stability in mouse hepatocytes; assay type: in vitro ADME
Protocol: (§1) Stability in hepatocytes for select compounds disclosed in the application was evaluated in two species (mouse and human) according to the following procedure. Compounds and positive control samples were dissolved in 100% DMSO at 5 mM. Cryopreserved hepatocytes were thawed and resuspended in Hepatocyte Basal Medium (HBM-Lonza CC-3199) supplemented with CC-4182 (complete hepatocyte culture medium). Test compounds were diluted into cell suspension (1 million cells/ml) from the stock solutions to have a test compound concentration of 5 μM (0.1% DMSO). Incubation was performed in 24-well plates, at 37° C. in a DUBNOFF water bath, under low shaking. Each compound was tested at 6 time points, in duplicates (0, 15, 30, 60, 120 and 240 min). At each time point, an aliquot of 120 μl was taken and transferred to a 96-well deep plate. The reaction was stopped with the addition of one volume of 100% acetonitrile plus 0.1% formic acid and the appropriate internal standard. Then samples were centrifuged at 1100×g for 30 min at +4° C. and supernatants were transferred to a new 96-deepwell plate. Samples were evaporated under N2 and reconstituted in H2O/ACN 0.1% Formic Acid (98:2). Analysis was performed without a calibration curve (Acquity UPLC-Waters; Sciex API4000). Time 0 was obtained adding acetonitrile before addition of the test compound. […] The half-life (t1/2) expressed in hours is derived using Equation 1 as shown in Example 64.

[4] = Stability in human hepatocytes; assay type: in vitro ADME; conditions: for half-life at 5 µM: t1/2, Human Hepatocytes; for half-life: 5 μM, 1 million cells/ml, 37° C., human hepatocytes
Protocol: as §1

[5] = Chemical stability in aqueous solution (phosphate buffered saline, NMR)
Protocol: To measure chemical stability in aqueous solution, the half-life (t1/2), or time needed for the concentration to decrease by half, was determined for select compounds in phosphate buffered saline solution. Compounds were dissolved in a solution containing 10 mM phosphate buffer (pH 7.5) and 5% of D2O to a final concentration of −1 mM. All spectra were obtained at 37° C. on a Bruker Avance 600 NMR spectrometer equipped with an inverse broad-band probe with z-gradients. Data were obtained every 15 min for a total time period of 4 h or longer, according to the observed stability. ^31P NMR was performed at 242.55 MHz, with gated decoupling of the protons. An observation frequency range of 14619.9 Hz and 32 K complex data points were used for acquisition. A pulse angle of 90° and a 4-sec pulse cycle were utilized. Thirty-two accumulations were obtained before Fourier transformation of the free induction decay. ^1H NMR spectra were acquired using the 1DNOESY experiment with water presaturation for better solvent suppression. An observation frequency range of 12019.23 Hz, a 10-sec pulse cycle, and 32 K complex data points were used for acquisition. Sixty-four scans were added prior to Fourier transformation. Integral data were obtained using the TopSpin software.
Stability was determined based on analysis of disappearance of the compounds as a function of incubation time. Quantification of test compounds was measured as a peak area relative to an internal standard. The elimination constant, k, was calculated by plotting mean disappearance values on a semi-logarithmic scale and fitting with a best fit linear regression. The half-life (t1/2) expressed in hours was derived using Equation 1: t1/2=ln2/(−k). Equation 1:

[6] = Stability in human plasma; assay type: in vitro ADME; conditions: 37° C.
In short: (§2)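 Test compound at 3 μM (0.1% DMSO) was incubated in mouse or human plasma at 37 °C and sampled in duplicate at 0, 10, 20, 30, 40 and 60 min. Reactions were stopped with acetonitrile/formic acid containing internal standard. Remaining parent was measured by UPLC-MS/MS without a calibration curve.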

[7] = Stability in mouse plasma; assay type: in vitro ADME
In short: as §2

[8] = Diastereoisomer A, read-out: Papp Diastereoisomer A
[9] = t1/2, Mouse Hepatocytes, Diastereoisomer A
[10] = t1/2, Mouse Hepatocytes, Diastereoisomer B
[11] = Diastereoisomer A (upfield shift in 31P NMR), 5 μM, 1 million cells/ml, 37° C., mouse hepatocytes, read-out: t1/2, Mouse Hepatocytes, Diastereoisomer A (converted)
[12] = Diastereoisomer A (upfield shift in 31P NMR), read-out: t1/2, Human Hepatocytes, Diastereoisomer A (converted)

Compound: CC(C)OC(=O)OCO[P@@]1(=O)OCC(C)(C)[C@H](C(=O)NCCC(=O)O)O1 [2-130, 3-((2S,4R)-2-(((isopropoxycarbonyl)oxy)methoxy)-5,5-dimethyl-2-oxido-1,3,2-dioxaphosphinane-4-carboxamido)propanoic acid]
PANK2−/− CoA (Fold Increase): fold increase in Coenzyme A (CoA) levels relative to controls [1]: 43.5 Fold Increase | Papp A→B at 60 min [2, 8]: 1.84 ×10⁻⁶ cm/s

Compound: COC(=O)CCNC(=O)[C@@H]1O[P@@](=O)(OCC(F)(F)F)OCC1(C)C [2-138, methyl 3-((2R,4R)-5,5-dimethyl-2-oxido-2-(2,2,2-trifluoroethoxy)-1,3,2-dioxaphosphinane-4-carboxamido)propanoate]
PANK2−/− CoA (Fold Increase): fold increase in Coenzyme A (CoA) levels relative to controls [1]: 1.13 Fold Increase | Papp A→B at 60 min [2, 8]: 15.6 ×10⁻⁶ cm/s | half-life at 5 µM ([4]; Diastereoisomer A): > 240 min

Compound: COC(=O)CCNC(=O)[C@@H]1O[P@@](OCCc2ccccc2)OCC1(C)C [compound 58, methyl 3-((2S,4R)-5,5-dimethyl-2-phenethoxy-1,3,2-dioxaphosphinane-4-carboxamido)propanoate]
half-life at 1 mM ([5]; pH 7.5): > 80 h

Compound: COC(=O)CCNC(=O)[C@@H]1OP(=O)(NCCc2ccncc2)OCC1(C)C (stereo partly drawn) [compound 111, methyl 3-((4R)-5,5-dimethyl-2-oxido-2-((2-(pyridin-4-yl)ethyl)amino)-1,3,2-dioxaphosphinane-4-carboxamido)propanoate]
half-life at 5 µM [3, 11]: 28.8 min | Papp A→B at 60 min [2, 8]: 0.7 ×10⁻⁶ cm/s | half-life [4, 12]: 171 min

Compound: COC(=O)CCNC(=O)[C@@H]1OP(=O)(NCC(=O)OCc2ccccc2)OCC1(C)C (stereo partly drawn) [compound 118, methyl 3-((4R)-2-((2-(benzyloxy)-2-oxoethyl)amino)-5,5-dimethyl-2-oxido-1,3,2-dioxaphosphinane-4-carboxamido) propanoate]
half-life at 3 µM ([6]; Diastereoisomer A (upfield shift in 31P NMR), read-out: t1/2, Human Plasma, Diastereoisomer A (converted)): > 60 min | t1/2, Human Plasma, Diastereoisomer B ([6]; Diastereoisomer B, 3 μM): >60 min | half-life at 3 µM ([7]; Diastereoisomer A (upfield shift in 31P NMR), 3 μM, 37° C., mouse plasma, read-out: t1/2, Mouse Plasma, Diastereoisomer A): < 9.6 min | t1/2, Mouse Plasma, Diastereoisomer B ([7]; Diastereoisomer B, 3 μM, 37° C., mouse plasma): <9.6 min | PANK2−/− CoA (Fold Increase): fold increase in Coenzyme A (CoA) levels relative to controls [1]: 2.96 Fold Increase | half-life at 5 µM [3, 11]: < 15 min | half-life at 5 µM ([3]; Diastereoisomer B, 5 μM, 1 million cells/ml, 37° C., mouse hepatocytes, read-out: t1/2, Mouse Hepatocytes, Diastereoisomer B (converted)): < 15 min | half-life [4, 12]: 25.8 min | half-life ([4]; Diastereoisomer B, read-out: t1/2, Human Hepatocytes, Diastereoisomer B (converted)): < 15 min

Second part, led by results:

Papp A→B at 60 min [2, 8]: 2.74 ×10⁻⁶ cm/s
Compound: COC(=O)CCNC(=O)[C@@H]1O[P@@](=O)(OCN2C(=O)c3ccccc3S2(=O)=O)OCC1(C)C (single isomer, unassigned) [Compound No. 2-126]
PANK2−/− CoA (Fold Increase): fold increase in Coenzyme A (CoA) levels relative to controls [1]: 138.56 Fold Increase

half-life at 5 µM [3, 9]: < 15 min | Papp A→B at 60 min [2, 8]: 11.8 ×10⁻⁶ cm/s | half-life at 5 µM ([4]; Diastereoisomer A): 17.4 min
Compound: CCc1cc(C(=O)OCO[P@@]2(=O)OCC(C)(C)[C@H](C(=O)NCCC(=O)OC)O2)n(C)n1 (single isomer, unassigned) [Compound No. 2-127]
PANK2−/− CoA (Fold Increase): fold increase in Coenzyme A (CoA) levels relative to controls [1]: 14.41 Fold Increase

half-life at 5 µM [3, 10]: < 15 min | Papp A→B at 60 min ([2]; Diastereoisomer B, read-out: Papp Diastereoisomer B): 11.5 ×10⁻⁶ cm/s | half-life at 5 µM ([4]; Diastereoisomer B): < 15 min
Compound: CCc1cc(C(=O)OCO[P@]2(=O)OCC(C)(C)[C@H](C(=O)NCCC(=O)OC)O2)n(C)n1 (single isomer, unassigned) [Compound No. 2-129]
PANK2−/− CoA (Fold Increase): fold increase in Coenzyme A (CoA) levels relative to controls [1]: 88.66 Fold Increase

half-life at 1 mM ([5]; pH 7.5, t1/2 (h) Diastereoisomer A, 10 mM phosphate buffer pH 7.5, 37° C., Diastereoisomer A = upfield shift in the 31P NMR): > 80 h
Compound: COC(=O)CCNC(=O)[C@@H]1O[P@@](=O)(OCCC(C)C)OCC1(C)C [compound 50, methyl 3-((2S,4R)-2-(isopentyloxy)-5,5-dimethyl-2-oxido-1,3,2-dioxaphosphinane-4-carboxamido)propanoate]

half-life at 5 µM [3, 9]: < 15 min | Papp A→B at 60 min [2, 8]: 18.1 ×10⁻⁶ cm/s | half-life at 5 µM ([4]; Diastereoisomer A): < 15 min
Compound: COC(=O)CCNC(=O)[C@@H]1O[P@](=O)(OCc2ccccc2)OCC1(C)C [compound 54, methyl 3-((2R,4R)-2-(benzyloxy)-5,5-dimethyl-2-oxido-1,3,2-dioxaphosphinane-4-carboxamido)propanoate]

half-life at 1 mM ([5]; pH 7.5, t1/2 (h), pH 7.5, 37° C., compound not chiral at phosphorous, one value spanning both columns): > 60 h
Compound: COC(=O)CCNC(=O)[C@@H]1OP(=O)(O)OCC1(C)C [compound 55, methyl 3-((4R)-2-hydroxy-5,5-dimethyl-2-oxido-1,3,2-dioxaphosphinane-4-carboxamido)propanoate]
PANK2−/− CoA (Fold Increase): fold increase in Coenzyme A (CoA) levels relative to controls [1]: 1.92 Fold Increase

half-life at 3 µM ([6]; human, plasma, Diastereoisomer A (upfield shift in 31P NMR), read-out: t1/2, Human Plasma, Diastereoisomer A (converted)): > 60 min | half-life at 3 µM ([6]; human, plasma, Diastereoisomer B, read-out: t1/2, Human Plasma, Diastereoisomer B (converted)): 18 min | half-life at 3 µM ([7]; mouse, plasma): < 9.6 min | t1/2, Mouse Plasma, Diastereoisomer B ([7]; mouse, plasma, 3 µM): <9.6 min | half-life at 5 µM [3, 9]: < 15 min | half-life at 5 µM [3, 10]: < 15 min | half-life at 5 µM ([4]; Diastereoisomer A): < 15 min | half-life at 5 µM ([4]; Diastereoisomer B): < 15 min
Compound: COC(=O)CCNC(=O)[C@@H]1OP(=O)(OC(C)OC(=O)c2ccccc2)OCC1(C)C (stereo partly drawn) [compound 98, 1-(((4R)-4-((3-methoxy-3-oxopropyl)carbamoyl)-5,5-dimethyl-2-oxido-1,3,2-dioxaphosphinan-2-yl)oxy)ethyl benzoate]
PANK2−/− CoA (Fold Increase): fold increase in Coenzyme A (CoA) levels relative to controls [1]: 4.01 Fold Increase

— patent US10364263B2, “Cyclic phosphates and cyclic phosphoramidates for the treatment of neurologic disorders” (Retrophin, Inc., priority 2015, dated 2019)
